From patent publication US20110064789A1, “DOCOSAHEXANOIC ACID AS INHIBITOR OF H. PYLORI” (priority 2009, published 2011)

How the values were obtained:
H. pylori [1] = conditions: cited from earlier work
[2] = tested on: H. pylori strains 26695, SS1 and B128; test: In vitro addition of DHA to a 12 hours H. pylori culture (bactericidal/bacteriostatic effect, CFU); assay type: cell-based, Helicobacter pylori; conditions: versus prior art doses
Experimental: Stock solutions of DHA were diluted at desired concentrations (from 10 μM to 1000 μM) in Brucella broth (BB) enriched with 10% FBS. […] Each experiment consisting of a control (bacterial medium) and bacteria incubated with DHA at 10 μ[…] and 1000 μM was performed in triplicate. DHA was added at the time 0 of the experiments or after 12 hours. H. pylori broth cultures were incubated microaerophilically, at 37° C. for 48 hours. Every 6 hours, the OD 600 nm of the cultures was measured and 200 μL samples were diluted and plated on blood agar plates for the numeration of viable bacteria (colony-forming-units (CFU)) after 48 hours of incubation at 37° C. The question as to whether DHA has a bactericidal effect was answered by conducting an experiment where DHA was added to a 12 hours H. pylori culture. FIG. 2 represents the viability of the three strains of H. pylori used. Addition of DHA after 12 hours of H. pylori growth led to a decrease of the ability to form CFU in a dose dependent manner.

H. pylori SS1 strain = test: Efficiency of DHA versus standard therapy in H. pylori eradication in mice; assay type: in vivo, C57BL/6 mice; conditions: mice infected one month; DHA 15 days, standard therapy 7 days
Description: C57BU6 mice have been infected with H. pylori SS1 strain for one month and proceed to treatment with DHA for 15 days or/and standard therapy for 7 days, as described elsewhere by Lee et al.^52 and van Zanten et al.^53. According to the standard therapy, mice received omeprazole (400 μmol/kg/day), metronidazole (14.2 μmol/kg/day) and clarithromycin (7.15 μmol/kg/day)^53.

H. pylori strain SS1 = test: Mouse model for H. pylori gastric colonization, DHA in drinking water; assay type: in vivo; conditions: for stomach colonization / mice in which colonization by H. pylori occurred / inhibition of H. pylori growth (gastric colonization): DHA 50 μM in drinking water
Description: Five-weeks-old specific pathogen-free C57BU6 male mice have been purchased from Charles River Laboratories (France). Animals were housed in microisolators in polycarbonate cages. Food has been supplied ad libitum. Standard diet was purchased from SAFE (Epinay/Orge, France). Animals were acclimatized for one week before inoculation. The experiments reported in the study were approved in advanced by the Central Animal Facility Committee of Institut Pasteur, in conformity with the French Ministry of Agriculture Guidelines for Animal Care.
H. pylori strain SS1 was grown on blood agar plates, harvested after 24 h and suspended in peptone broth. Twenty four mice (n=24) were orogastrically inoculated 100 μL of a suspension of 10^8 CFU/mL of H. pylori strain SS1, whereas non-infected groups of mice (n=24) were given 100 μL of peptone broth. Mice were sacrificed 1 or 3 months after infection. For each time point, the experiments consisted in 4 groups of mice, 2 groups received drinking water and for the two other groups, drinking water was supplemented with DHA at a final concentration of 50 μM. Dose of 50 μM corresponds more precisely to a quantity of 0.068 mg of DHA received by each mouse each day. Each two groups consisted of one uninfected-group (n=6) and one H. pylori strain SS1 infected-group (n=6). Stomachs were isolated from each mouse and used to measure H. pylori colonization as previously described by Ferrero et al.^51
C57BL/6 mice were therefore infected with SS1 strain and start on DHA treatment for the whole period of the experiment, which was given in their drinking water in a concentration of 50 μM. Mice were sacrificed at one, three, six or nine months of infection.

[3] = tested on: H. pylori strains 26695 (ATCC 700392), SS1 and B128; test: In vitro incubation of H. pylori broth cultures with DHA added at time 0 (growth, viable CFU); assay type: cell-based, Helicobacter pylori; conditions: DHA 250 μM
H. pylori [4] = conditions: in vitro assay of Thompson et al.; cited from earlier work

**Q.** Which “effect on growth of H. pylori” value (H. pylori [1]) does the source give for CCC(C(=O)O)c1ccccc1 (stereo not shown) [2-phenylbutyrate] here?
**A.** Its value is “ability to inhibit the growth of H. pylori”.

**Q.** For O=C(O)CCCc1ccccc1 [4-phenylbutyrate], which “effect on growth of H. pylori” value (H. pylori [1]) is on record?
**A.** Its value is “ability to inhibit the growth of H. pylori”.

**Q.** What does the source list for CC/C=C\C/C=C\C/C=C\C/C=C\C/C=C\C/C=C\CCC(=O)O [DHA, docosahexaenoic acid]?
**A.** doses giving bactericidal and bacteriostatic effects, lower than the prior art doses [2]: 5 to 10 times; lower gastric colonization (H. pylori SS1 strain): 10 times; dose that showed a higher inhibitory role in gastric colonization (H. pylori strain SS1; 25, 50 and 100 μM tested in drinking water): 50 µM; stomach colonization (H. pylori strain SS1; after 1 month of infection): 0.47×10^5 CFU/g gastric tissue; stomach colonization (H. pylori strain SS1; after the third month): 0.62×10^5 CFU/g gastric tissue; mice in which colonization by H. pylori occurred (H. pylori strain SS1; first month of infection): 20%; mice in which colonization by H. pylori occurred (H. pylori strain SS1; third month): 50%; inhibition of H. pylori growth (gastric colonization) (H. pylori strain SS1; nine months of infection): about 100 fold; inhibition of H. pylori growth (gastric colonization) (H. pylori strain SS1; one, three and six months of infection): approximately 10 fold; toxicity (H. pylori strain SS1; DHA 50 μM in mice drinking water, 0.068 mg per mouse per day): no toxicity concerns; bacterial viability of strain 26695 as compared to SS1 [3]: 100 times

**Q.** For CC/C=C\C/C=C\C/C=C\C/C=C\C/C=C\CCCC(=O)O [EPA], which “concentration that could inhibit the growth of H. Pylori” value (H. pylori [4]) is on record?
**A.** The value was 0.2 mM.

**Q.** Which “concentration that could inhibit the growth of H. Pylori” value (H. pylori [4]) does the source give for CC/C=C\C/C=C\C/C=C\CCCCCCCC(=O)O [linolenic acid ω-3C18:3] here?
**A.** Its value is 0.2 mM.

**Q.** With CCCCC/C=C\C/C=C\C/C=C\CCCCC(=O)O [ω-6C18:3, linolenic acid ω-6C18:3] as the molecule, how does the “concentration that could inhibit the growth of H. Pylori” value (H. pylori [4]) read?
**A.** The value was 0.2 mM.
